Series [1] concerns the target T1, recombinant human MMP-12 catalytic domain (Homo sapiens, UniProt P39900).
T1 construct: recombinant human MMP-12 catalytic domain; purchased Enzo BM1L-SE138
The series is described as follows: MMP-12 inhibitory assay (fluorogenic MMP substrate cleavage). Conditions: readout at 30 minutes. Format: biochemical. The procedure: The inhibitory effect of compounds on the rate of cleaving fluorogenic MMP substrate (Enzo, BML-P128) by recombinant human MMP-12 catalytic domain (Enzo, BM1L-SE138) was carried out by methods known in the art. Briefly, to each well of a 96-well black opaque plate, all the reagents were sequentially added by pipetting, and the final reaction contained 4 nM of recombinant human MMP-12 catalytic domain, 4 μM of fluorogenic MMP substrate, and various concentrations (0.15 nM to 10,000 nM) of tested compound dilutions in HEPES buffer (pH 7.5) containing 10 mM of CaCl2), 0.01% Brij® 35 (polyoxyethylene (23) lauryl ether), and 0.1 mg/ml of BSA.
The enzyme and compounds were pre-incubated on a shaker to mix in wells. After an hour of mixing, fluorogenic substrate was added to each well. Reaction without enzyme was used as a blank control in the plate. The plate was then fed into a plate reader to measure fluorescence intensity at Excitation/Emission wavelengths of 340 nm/440 nm every 10 mins for at least 1 hour at 37° C. The IC50 of each compound in MMP-12 inhibition was determined by using a readout obtained at time point 30 minutes.

Series [2] concerns bleomycin (BLM) induced unilateral lung fibrosis model in Sprague Dawley (SD) rats. The experiment in a line: Bleomycin-induced SD rat unilateral lung fibrosis model for IPF. The series is classed as in vivo. The procedure: The purpose of this study was to evaluate the therapeutic effect of FC-4 on bleomycin (BLM) induced unilateral lung fibrosis model in Sprague Dawley (SD) rats. Male SD rats (n=50) were randomly divided into the following groups: Sham group (n=10), Model group (n=10), FC-4 administered at 10 mg/kg/day group (n=10), FC-4 administered at 30 mg/kg/day group (n=10), and FC-4 administered at 100 mg/kg/day group (n=10). All test drugs were delivered orally starting from day 8 of modeling for 14 days. Saline solution was taken for sham and model groups once a day, and FC-4 twice a day for drug treatment groups. Rats were anesthetized and the trachea was exposed. Saline was administrated via direct intra-trachea injection in the sham group, and the other groups' animals received a BLM injection at a dose of 3 mg/kg in volume of 1.0 ml/kg. All animals were processed using a non invasive lung function test with EMMS Whole Body Plethysmography system at pre-modeling, and at days 3, 7, 11, 14, 18 and 21 of modeling. One day after the last drug delivery, the left lung of all animals was perfused with 10% formalin, and processed for pathology analysis.
Animals: Species and quality level: SD rats, SPF grade. Gender and number: male, 93. Purchasing body weight range: 260-280 g. […]

A value given as a limit tells only on which side of the number the result lay.

T1 sequence (P39900 106-263 limits assumed): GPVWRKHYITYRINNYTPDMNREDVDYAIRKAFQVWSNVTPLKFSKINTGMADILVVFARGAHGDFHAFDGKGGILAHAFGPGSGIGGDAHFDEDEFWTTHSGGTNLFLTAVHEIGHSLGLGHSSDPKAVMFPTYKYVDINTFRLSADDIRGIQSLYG

Usually IC50 stands for the concentration that gives 50% inhibition. In the case of `Cc1cc(CCc2ccc(Sc3ccoc3C3NC(=O)NC3=O)cc2)ccn1` (stereo not drawn) [FC-30], in series [1], the IC50 lay in the range of 10 to 100 nM.
For `Cc1cc(CNc2ccc(Sc3ccoc3C3NC(=O)NC3=O)cc2)ccn1` (stereo not drawn) [FC-31], the half-inhibitory concentration (IC50) in series [1] is 10 to 100 nM.
On to `Cc1cc(COc2ccc(Sc3ccoc3C3NC(=O)NC3=O)cc2)ccn1` (stereo not drawn) [FC-4], for which the “Share of the Ashcraft score that was score 3” value in series [2] (all drug treatment groups) is given as roughly 80%. For the same compound, the “Physical and behavior abnormality” value in series [2] (all tested rats during the experiment) is “no obviously physical and behavior abnormality change”.
`Cc1cccc(COc2ccc(Sc3ccoc3C3NC(=O)NC3=O)cc2)[n+]1[O-]` (stereo not drawn) [FC-5]: the IC50 in series [1] is greater than 1000 nM.
On the same count and under the same terms, then `Cc1cc(NCc2ccc(Sc3ccoc3C3NC(=O)NC3=O)cc2)ccn1` (stereo not drawn) [FC-34], with 100 to 1000 nM.

(Values after patent US12258335B1, “Matrix metalloproteinase (MMP) inhibitors and methods of use thereof” (Foresee Pharmaceuticals USA, Inc., priority 2018, dated 2025).)
